Test results reported in US20060046966A1, “Antipicornaviral compounds and compositions, their pharmaceutical uses, and materials for their synthesis” (Agouron Pharmaceuticals, Inc., priority 1998, published 2006).
pEC50: −log10 of the molar value.

Key:
[1] = tested on: HRV (2); assay: Antirhinoviral H1-HeLa cell culture assay, HRV serotype 2; format: cell-based, human rhinovirus; conditions: Human rhinovirus sp., H1-HeLa, H1-HeLa cells, XTT
Method: (§1) In this cell protection assay, the ability of compounds to protect cells against HRV infection was measured by the XTT dye reduction method, which is described in Weislow et al., J. Natl. Cancer Inst. 1989, vol. 81, 577-586.
(§2) H1-HeLa cells were infected with HRV-14 at a multiplicity of infection (m.o.i.) of 0.13 (virus particles/cell) or mock-infected with medium only. Infected or mock-infected cells were resuspended at 8×10^5 cells per mL, and incubated with appropriate concentrations of the compounds to be tested. Two days later, XTT/PMS was added to test plates and the amount of formazan produced was quantified spectrophotometrically at 450/650 nm. The EC50 value was calculated as the concentration of compound that increased the percentage of formazan production in compound-treated, virus-infected cells to 50% of that produced by compound-free, mock-infected cells. The 50% cytotoxic dose (CC50) was calculated as the concentration of compound that decreased the percentage of formazan produced in compound-treated, mock-infected cells to 50% of that produced by compound-free, mock-infected cells. The therapeutic index (TI) was calculated by dividing the CC50 value by the EC50 value.
(§3) All strains of human rhinovirus (HRV) for use in this assay were purchased from American Type Culture Collection (ATCC), except for HRV serotype-14 (produced from the infectious cDNA clone constructed by Dr. Robert Rueckert, Institute for Molecular Virology, University of Wisconsin, Madison, Wis.). HRV stocks were propagated and viral assays were performed in H1-HeLa cells (ATCC). Cells were grown in minimal essential medium with 10% fetal bovine serum, available from Life Technologies (Gaithersburg, Md.).
(§4) The compounds were tested against control compounds WIN 51711, WIN 52084, and WIN 54954 (obtained from Sterling-Winthrop Pharmaceuticals), Pirodavir (obtained from Janssen Pharmaceuticals), and Pleconaril (prepared according to the method described in Diana et al., J. Med. Chem 1995, vol. 38, 1355). Antiviral data obtained for the test compounds are shown in Tables 1 and 3, where all data are for HRV serotype-14 unless otherwise noted in parentheses.

[2] = tested on: HRV (25); assay: Antirhinoviral H1-HeLa cell culture assay, HRV serotype 25; format: cell-based; conditions: Human rhinovirus sp., H1-HeLa cells, XTT
Method: as §1
as §2, with “value. […]” for “value.”

[3] = tested on: Echovirus type 11 (EV 11); assay: Anti-echoviral cell culture assay, EV 11; format: cell-based; conditions: Enterovirus B, MRC5, 96 h; Strain EV-11; MRC-5 cells; four days; XTT; read-out: EC50
Method: (§5) Echovirus type 11 (EV 11) and enterovirus type 70 (EV 70) were purchased from ATCC (Rockville, Md.). Virus stocks were propagated and antiviral assays were performed in MRC-5 cells (ATCC). Cells were grown in minimal essential medium with 10% fetal bovine serum (Life Technologies, Gaithersburg, Md.).
(§6) The ability of compounds to protect cells against either EV 11 or EV 70 infection was measured by the XTT dye reduction method (Weislow et al., J. Natl. Cancer Inst. 1989, vol. 81, 577-586). MRC-5 cells were infected with EV 11 or EV 70 at an m.o.i. of 0.003 or 0.004, respectively, or mock-infected with medium only. Infected or uninfected cells were added at 1×10^4 cells per well and incubated with appropriate concentrations of compound. Four days later, XTT/PMS was added to test plates, and the amount of formazan produced was quantified spectrophotometrically at 450/650 nm. The EC50 was calculated as the concentration of compound that increased the formazan production in compound-treated, virus-infected cells to 50% of that produced by compound-free, uninfected cells. The 50% cytotoxic dose (CC50) was calculated as the concentration of compound that decreased formazan production in compound-treated, uninfected cells to 50% of that produced in compound-free, uninfected cells. The therapeutic index (TI) was calculated by dividing the CC50 by the EC50.
The compounds were tested against control compounds Pirodavir (obtained from Janssen Pharmaceuticals) and Pleconaril (prepared according to Diana et al., J. Med. Chem. 1995, vol. 38, 1355). Antiviral data obtained for the test compounds against strain EV 11 and EV 70 are shown below in Table 5.

[4] = tested on: enterovirus type 70 (EV 70); assay: Anti-enteroviral cell culture assay, EV 70; format: cell-based; conditions: Enterovirus D, MRC5, 96 h; Strain EV-70; MRC-5 cells; four days; XTT
Method: as §5
as §6, with “EC50. […]” for “EC50.”

[5] = tested on: HRV (9); assay: Antirhinoviral H1-HeLa cell culture assay, HRV serotype 9; format: cell-based, human rhinovirus; conditions: Human rhinovirus sp., H1-HeLa cells, XTT
Method: as §1, §2, §3
(§7) The compounds were tested against control compounds WIN 51711, WIN 52084, and WIN 54954 (obtained from Sterling-Winthrop Pharmaceuticals), Pirodavir (obtained from Janssen Pharmaceuticals), and Pleconaril (prepared according to the method described in Diana et al., J. Med. Chem 1995, vol. 38, 1355). […]

[6] = tested on: HRV (38); assay: Antirhinoviral H1-HeLa cell culture assay, HRV serotype 38; format: cell-based; conditions: Human rhinovirus sp., H1-HeLa cells, XTT
Method: as §1
as §2, with “value. […]” for “value.”

[7] = tested on: HRV (12); assay: Antirhinoviral H1-HeLa cell culture assay, HRV serotype 12; format: cell-based; conditions: Human rhinovirus sp., H1-HeLa cells, XTT
Method: as §1
as §2, with “value. […]” for “value.”

[8] = tested on: HRV (16); assay: Antirhinoviral H1-HeLa cell culture assay, HRV serotype 16; format: cell-based; conditions: Human rhinovirus sp., H1-HeLa cells, XTT
Method: as §1, §2, §3, §7

[9] = target: T1, rhinovirus 3C protease from HRV serotype-14 (Human rhinovirus 14, UniProt P03303); assay: Inhibition of rhinovirus 3C protease (FRET assay), serotype 14; format: biochemical; conditions: read-out: Protease Inhibition kobs/[I], HRV serotype-14 3C protease; progress curves in enzyme start experiments
T1 construct: Recombinant rhinovirus 3C proteases; made in house
T1 sequence (P03303 1538-1719): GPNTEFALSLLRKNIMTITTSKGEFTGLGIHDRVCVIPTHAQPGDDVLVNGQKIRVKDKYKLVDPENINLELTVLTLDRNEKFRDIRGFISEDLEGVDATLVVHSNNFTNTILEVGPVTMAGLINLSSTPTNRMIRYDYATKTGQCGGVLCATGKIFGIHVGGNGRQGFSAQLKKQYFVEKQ
Procedure, shortened: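 Recombinant 3C protease (50-100 nM) with ~1 μM DABCYL-GRAVFQGPVG-EDANS FRET substrate in 50 mM Tris pH 7.6, 1 mM EDTA, 2% DMSO. Cleavage read as increase in EDANS fluorescence. kobs/[I] derived from progress curves of enzyme-initiated reactions.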

[10] = tested on: HRV (10); assay: Antirhinoviral H1-HeLa cell culture assay, HRV serotype 10; format: cell-based, human rhinovirus; conditions: Human rhinovirus sp., H1-HeLa, H1-HeLa cells, XTT
Method: as §1, §2, §3, §4

## CCOC(=O)/C=C/[C@H](C[C@@H]1CCNC1=O)NC(=O)[C@@H](CC(=O)[C@@H](NC(=O)c1cc(C)on1)C(C)C)Cc1ccc(F)cc1 [Compound B-2, Ethyl-3-{(5′-Methylisoxazole-3′-carbonyl)-L-ValΨ(COCH2)-L-(4-F-Phe)-L-((S)-Pyrrol-Ala)}-E-Propenoate]
[1]
  pEC50: 7.70
[2]
  pEC50: 7.52
[3]
  pEC50: 8.00
[4]
  pEC50: 8.52
[5]
  pEC50: 8.22
[6]
  pEC50: 7.15
[7]
  pEC50: 7.30
[8]
  pEC50: 8.00
[9]
  kinact/KI: 1.09e+06 M⁻¹ s⁻¹
[10]
  pEC50: 7.70
